The target of experiment [1] is T1, human recombinant histamine H1 receptor (Homo sapiens, UniProt P35367).
T1 construct: expressed in transfected cells; host or cells: CHO-K1
As to the kind of experiment: Histamine H1 radioligand binding ([3H]Pyrilamine). The note with it: read-out: Histamine H1 Binding (1 μM), percent inhibition of specific binding; compound at 1 μM; 1.2 nM [3H]Pyrilamine. On the procedure:
To evaluate in radioligand binding assays the activity of compounds of the invention, human recombinant histamine H1 receptor expressed in Chinese hamster ovary (CHO) K1 cells (De Backer, M. et al, Biochem. Biophys. Res. Comm. 197(3):1601, 1993) in a modified Tris-HCl buffer (50 mM Tris-HCl, pH 7.4, 2 mM MgCl2, 100 mM NaCl, 250 mM Sucrose) was used. […] Non-specific binding was estimated in the presence of 1 μM Pyrilamine. Receptor proteins were filtered and washed, the filters were then counted to determine [^3H]Pyrilamine specifically bound. […] Biochemical assay results are presented as the percent inhibition of specific binding in Table 2.

The target of experiment [2] is T2, human recombinant dopamine D2L receptor (Homo sapiens, UniProt P14416).
T2 construct: expressed in transfected cells; host or cells: CHO
T2 sequence (P14416 whole entry): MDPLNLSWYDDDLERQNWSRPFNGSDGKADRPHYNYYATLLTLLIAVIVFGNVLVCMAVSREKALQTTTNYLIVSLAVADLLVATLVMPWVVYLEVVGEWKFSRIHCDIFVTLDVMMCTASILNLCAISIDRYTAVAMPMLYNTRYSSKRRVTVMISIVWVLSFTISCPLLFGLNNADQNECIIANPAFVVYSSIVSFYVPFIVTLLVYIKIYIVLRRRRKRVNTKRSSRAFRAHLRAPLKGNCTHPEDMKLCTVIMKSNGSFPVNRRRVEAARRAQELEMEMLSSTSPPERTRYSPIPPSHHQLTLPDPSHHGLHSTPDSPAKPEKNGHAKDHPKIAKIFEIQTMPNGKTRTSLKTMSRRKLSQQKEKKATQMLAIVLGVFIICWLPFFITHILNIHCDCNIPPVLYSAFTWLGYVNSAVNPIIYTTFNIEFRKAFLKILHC
As to the kind of experiment: Dopamine D2L radioligand binding ([3H]Spiperone). The note with it: read-out: Dopamine D2L (1 μM), percent inhibition of specific binding; compound at 1 μM; 0.16 nM [3H]Spiperone. On the procedure: Non-specific binding was estimated in the presence of 10 μM Haloperidol. Receptor proteins were filtered and washed, the filters were then counted to determine [^3H]Spiperone specifically bound.

The target of experiment [3] is T3, human recombinant serotonin (5-Hydroxytryptamine) 5-HT2A receptor (Homo sapiens, UniProt P28223).
T3 construct: expressed in transfected cells; host or cells: CHO-K1
T3 sequence (P28223 whole entry): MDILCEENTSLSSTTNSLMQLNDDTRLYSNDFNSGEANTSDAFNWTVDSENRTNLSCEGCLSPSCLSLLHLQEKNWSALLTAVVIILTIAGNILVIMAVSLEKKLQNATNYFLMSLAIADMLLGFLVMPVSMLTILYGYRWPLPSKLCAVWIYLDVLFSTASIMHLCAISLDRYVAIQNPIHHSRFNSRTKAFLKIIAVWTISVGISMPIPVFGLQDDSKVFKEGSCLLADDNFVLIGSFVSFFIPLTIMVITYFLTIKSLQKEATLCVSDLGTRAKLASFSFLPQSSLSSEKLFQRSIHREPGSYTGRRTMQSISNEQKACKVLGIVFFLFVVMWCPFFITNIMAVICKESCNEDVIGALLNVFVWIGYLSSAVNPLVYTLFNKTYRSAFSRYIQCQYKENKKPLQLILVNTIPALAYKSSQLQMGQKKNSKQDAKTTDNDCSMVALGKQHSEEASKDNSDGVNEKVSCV
The experiment in a line: Serotonin 5-HT2A radioligand binding ([3H]Ketanserin). The note with it: compound at 0.1 μM; read-out: Inhibition of ligand binding, Serotonin 5-HT2A (percent inhibition of specific binding). Here is the method: Compounds of the invention were incubated with 0.5 nM [^3H]Ketanserin for 60 min at 25° C. Non-specific binding was estimated in the presence of 1 μM Mianserin. Receptor proteins were filtered and washed, the filters were then counted to determine [^3H]Ketanserin specifically bound.

Experiment [4] has as its target T4, human recombinant serotonin (5-Hydroxytryptamine) 5-HT2C receptor (Homo sapiens, UniProt P28335).
T4 construct: expressed in transfected cells; host or cells: CHO-K1
T4 sequence (P28335 33-458): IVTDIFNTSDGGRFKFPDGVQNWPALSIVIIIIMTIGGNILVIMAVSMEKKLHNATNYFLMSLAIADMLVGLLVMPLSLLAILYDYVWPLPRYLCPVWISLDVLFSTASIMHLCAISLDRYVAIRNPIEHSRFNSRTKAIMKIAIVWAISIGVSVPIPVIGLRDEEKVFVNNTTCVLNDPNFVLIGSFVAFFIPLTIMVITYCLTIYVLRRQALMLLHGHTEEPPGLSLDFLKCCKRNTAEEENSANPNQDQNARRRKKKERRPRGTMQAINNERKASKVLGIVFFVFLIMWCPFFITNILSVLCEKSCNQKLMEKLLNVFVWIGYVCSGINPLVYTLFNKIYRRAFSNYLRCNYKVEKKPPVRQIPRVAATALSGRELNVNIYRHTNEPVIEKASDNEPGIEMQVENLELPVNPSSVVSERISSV
As to the kind of experiment: Serotonin 5-HT2C radioligand binding ([3H]Mesulergine). The note with it: compound at 0.1 μM; read-out: Inhibition of ligand binding, Serotonin 5-HT2C (percent inhibition of specific binding). On the procedure: Compounds of the invention were incubated with 1 nM [^3H]Mesulergine for 60 min at 25° C. Non-specific binding was estimated in the presence of 1 μM Mianserin. Receptor proteins were filtered and washed, the filters were then counted to determine [^3H]Mesulergine specifically bound.

The target of experiment [5] is T5, human recombinant serotonin (5-Hydroxytryptamine) 5-HT6 receptor (Homo sapiens, UniProt P50406).
T5 construct: expressed in transfected cells; host or cells: HeLa
T5 sequence (P50406 whole entry): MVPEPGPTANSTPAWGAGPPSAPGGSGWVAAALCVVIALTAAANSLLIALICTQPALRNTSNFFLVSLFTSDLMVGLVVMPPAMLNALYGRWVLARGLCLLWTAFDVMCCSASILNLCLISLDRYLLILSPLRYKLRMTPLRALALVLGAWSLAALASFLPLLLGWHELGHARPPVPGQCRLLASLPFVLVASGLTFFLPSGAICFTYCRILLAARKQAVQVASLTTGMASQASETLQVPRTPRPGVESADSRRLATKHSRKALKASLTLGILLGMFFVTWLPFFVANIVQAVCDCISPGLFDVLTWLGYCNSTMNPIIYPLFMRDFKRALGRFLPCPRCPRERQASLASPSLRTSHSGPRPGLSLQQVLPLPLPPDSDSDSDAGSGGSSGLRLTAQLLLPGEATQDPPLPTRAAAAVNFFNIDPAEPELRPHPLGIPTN
As to the kind of experiment: Serotonin 5-HT6 radioligand binding ([3H]LSD). The note with it: compound at 0.1 μM; read-out: Inhibition of ligand binding, Serotonin 5-HT6 (percent inhibition of specific binding). From the text: Receptor proteins were filtered and washed, the filters were then counted to determine [3H]LSD specifically bound.

For experiment [6], the target named is T6, human recombinant serotonin (5-Hydroxytryptamine) 5-HT7 receptor (Homo sapiens, UniProt P34969).
T6 construct: expressed in transfected cells; host or cells: CHO
T6 sequence (P34969 whole entry): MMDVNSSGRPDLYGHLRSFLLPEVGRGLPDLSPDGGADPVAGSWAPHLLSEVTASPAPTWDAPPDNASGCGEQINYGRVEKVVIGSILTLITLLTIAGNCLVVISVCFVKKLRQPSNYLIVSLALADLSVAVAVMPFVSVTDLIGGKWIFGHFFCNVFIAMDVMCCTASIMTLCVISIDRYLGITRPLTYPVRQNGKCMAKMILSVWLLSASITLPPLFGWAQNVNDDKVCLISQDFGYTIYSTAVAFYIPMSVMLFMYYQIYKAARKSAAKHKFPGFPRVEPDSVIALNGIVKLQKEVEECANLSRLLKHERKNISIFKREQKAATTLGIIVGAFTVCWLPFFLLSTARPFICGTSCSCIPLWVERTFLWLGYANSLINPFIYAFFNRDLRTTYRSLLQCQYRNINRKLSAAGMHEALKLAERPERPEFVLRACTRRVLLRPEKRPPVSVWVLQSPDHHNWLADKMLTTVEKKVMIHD
As to the kind of experiment: Serotonin 5-HT7 radioligand binding ([3H]LSD). The note with it: compound at 0.1 μM; read-out: Inhibition of ligand binding, Serotonin 5-HT7 (percent inhibition of specific binding). On the procedure: Lysergic acid diethylamide (LSD) for 120 min. at 25° C. […] Receptor proteins were filtered and washed, the filters were then counted to determine [^3H]LSD specifically bound.

T1 sequence (P35367 whole entry): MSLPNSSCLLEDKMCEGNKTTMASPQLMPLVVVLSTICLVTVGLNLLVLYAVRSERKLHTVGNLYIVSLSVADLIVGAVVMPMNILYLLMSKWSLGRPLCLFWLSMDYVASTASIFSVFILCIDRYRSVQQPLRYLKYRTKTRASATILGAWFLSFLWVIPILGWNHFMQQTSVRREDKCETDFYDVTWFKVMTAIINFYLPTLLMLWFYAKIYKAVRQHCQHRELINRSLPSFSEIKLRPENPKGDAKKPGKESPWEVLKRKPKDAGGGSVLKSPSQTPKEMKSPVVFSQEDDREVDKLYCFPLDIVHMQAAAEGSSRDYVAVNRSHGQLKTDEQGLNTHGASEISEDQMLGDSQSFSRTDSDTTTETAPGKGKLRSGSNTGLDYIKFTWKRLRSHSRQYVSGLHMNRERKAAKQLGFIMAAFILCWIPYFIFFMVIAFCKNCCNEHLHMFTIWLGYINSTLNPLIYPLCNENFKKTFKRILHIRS

As usually defined, the inhibition is the relative decrease from the control value, in per cent. For `Cc1ccc2c(c1)c1c(n2-c2ccccc2-c2cccnc2)CCN(C)C1` [Compound 13, 2,8-dimethyl-5-(2-pyridin-3-yl-phenyl)-2,3,4,5-tetrahydro-1H-pyrido[4,3-b]indole], the figures for the inhibition at 1 µM in experiment [1] and in experiment [2] were 72% and 21%, respectively. Moreover, the inhibition at 0.1 µM in experiment [3] is 73%; in experiment [4] it was 73%; in experiment [5], 14%; in experiment [6], 47%.

Take `COc1ccc(-n2c3c(c4cc(C)ccc42)CN(C)CC3)cn1` [Compound 17, 5-(6-Methoxy-pyridin-3-yl)-2,8-dimethyl-2,3,4,5-tetrahydro-1H-pyrido[4,3-b]indole]: the inhibition at 1 µM in experiment [1] is 23%; in experiment [2], 10%. The inhibition at 0.1 µM in experiment [3] came out at 62%; in experiment [4], 44%; in experiment [5], 17%; in experiment [6], 1%.

Consider `Cc1ccc2c(c1)c1c(n2-c2cscc2-c2ccncc2)CCN(C)C1` [Compound 20, 2,8-dimethyl-5-(4-pyridin-4-yl-thiophen-3-yl)-2,3,4,5-tetrahydro-1H-pyrido[4,3-b]indole], for which the inhibition at 1 µM in experiment [1] is 42%; in experiment [2], 9%. Further, the inhibition at 0.1 µM in experiment [3] was found to be 78%; in experiment [4] it was 85%; in experiment [5] it was 18%; in experiment [6], 97%.

Turning to `CN1CCc2c(c3cc(Cl)ccc3n2-c2cscc2-c2ccccc2)C1` [Compound 26], the inhibition at 1 µM in experiment [1] came out at 91%; in experiment [2] it was 47%. Also, the inhibition at 0.1 µM in experiment [3] was found to be 86%; in experiment [4] it was 96%; in experiment [5], 61%; in experiment [6] it was 95%.

On to `CN1CCc2c(c3cc(Cl)ccc3n2-c2ccsc2)C1` [Compound 29, 8-chloro-2-methyl-5-thiophen-3-yl-2,3,4,5-tetrahydro-1H-pyrido[4,3-b]indole], for which the inhibition at 1 µM in experiment [1] stood at 90%; in experiment [2] it was 63%. Besides, the inhibition at 0.1 µM was 101% in experiment [3], 98% in experiment [4], 101% in experiment [5] and 63% in experiment [6].

Regarding `Cc1ccc2c(c1)c1c(n2-c2cscc2-c2ccc(F)cc2)CCN(C)C1` [Compound 23], the inhibition at 1 µM in experiment [1] amounted to 72%; in experiment [2] it was 44%. The inhibition at 0.1 µM in experiment [3] was found to be 83%; in experiment [4] it was 90%; in experiment [5] it was 45%; in experiment [6], 98%.

For `Cc1ccc2c(c1)c1c(n2-c2ccncc2)CCN(C)C1` [Compound 2, 2,8-dimethyl-5-pyridin-4-yl-2,3,4,5-tetrahydro-1H-pyrido[4,3-b]indole], the figures for the inhibition at 1 µM in experiment [1] and in experiment [2] were 51% and 13%, respectively. For the same molecule, the inhibition at 0.1 µM in experiment [3] is 74%; in experiment [4], 54%; in experiment [5] it was 17%; in experiment [6], 36%.

As for `Cc1ccc2c(c1)c1c(n2-c2cccc3cnccc23)CCN(C)C1` [Compound 9, 5-isoquinolin-5-yl-2,8-dimethyl-2,3,4,5-tetrahydro-1H-pyrido[4,3-b]indole], the figures for the inhibition at 1 µM in experiment [1] and in experiment [2] were 65% and 0%, respectively. Besides, the inhibition at 0.1 µM in experiment [3] was 54%; in experiment [4], 77%; in experiment [5], 5%; in experiment [6] it was 59%.

With `Cc1ccc2c(c1)c1c(n2-c2cccc(N(C)C)c2)CCN(C)C1` [Compound 7, [3-(2,8-dimethyl-1,2,3,4-tetrahydro-pyrido[4,3-b]indol-5-yl)-phenyl]-dimethyl-amine], the inhibition at 1 µM in experiment [1] was determined as 43%; in experiment [2], 31%. Moreover, the inhibition at 0.1 µM in experiment [3] came to 52%; in experiment [4], 42%; in experiment [5], 4%; in experiment [6], 19%.

On to `Cc1ccc2c(c1)c1c(n2-c2cscc2-c2ccccc2)CCN(C)C1` [Compound 21, 2,8-dimethyl-5-(4-phenyl-thiophen-3-yl)-2,3,4,5-tetrahydro-1H-pyrido[4,3-b]indole], for which the inhibition at 1 µM worked out at 86% in experiment [1] and 54% in experiment [2]. For the same molecule, the inhibition at 0.1 µM worked out at 90% in experiment [3], 96% in experiment [4], 62% in experiment [5] and 99% in experiment [6].

As for `Cc1ccc2c(c1)c1c(n2-c2ccc(C)nc2)CCN(C)C1` [Compound 3, 2,8-dimethyl-5-(6-methyl-pyridin-3-yl)-2,3,4,5-tetrahydro-1H-pyrido[4,3-b]indole], the inhibition at 1 µM in experiment [1] stood at 10%; in experiment [2], 16%. Also, the inhibition at 0.1 µM in experiment [3] amounted to 36%; in experiment [4] it was 26%; in experiment [5], 20%; in experiment [6] it was 8%.

As for `Cc1ccc2c(c1)c1c(n2-c2ccc3ncccc3c2)CCN(C)C1` [Compound 24, 2,8-dimethyl-5-quinolin-6-yl-2,3,4,5-tetrahydro-1H-pyrido[4,3-b]indole], the inhibition at 1 µM was 10% in experiment [1] and 45% in experiment [2]. For the same molecule, the inhibition at 0.1 µM was found to be 72% in experiment [3], 66% in experiment [4], 12% in experiment [5] and 25% in experiment [6].

On to `Cc1ccc2c(c1)c1c(n2-c2cscn2)CCN(C)C1` [Compound 19, 2,8-dimethyl-5-thiazol-4-yl-2,3,4,5-tetrahydro-1H-pyrido[4,3-b]indole], for which the inhibition at 1 µM in experiment [1] came to 59%; in experiment [2], 14%. Further, the inhibition at 0.1 µM in experiment [3] was 64%; in experiment [4], 71%; in experiment [5], 15%; in experiment [6] it was 51%.

`CN1CCc2c(c3cc(Cl)ccc3n2-c2cscc2-c2ccncc2)C1` [Compound 28]: the inhibition at 1 µM in experiment [1] came out at 46%; in experiment [2], 20%. The inhibition at 0.1 µM amounted to 68% in experiment [3], 76% in experiment [4], 45% in experiment [5] and 95% in experiment [6].

On to `Cc1ccc2c(c1)c1c(n2-c2ccccc2-c2ccccc2)CCN(C)C1` [Compound 8, 5-biphenyl-2-yl-2,8-dimethyl-2,3,4,5-tetrahydro-1H-pyrido[4,3-b]indole], for which the inhibition at 1 µM in experiment [1] amounted to 92%; in experiment [2], 30%. The inhibition at 0.1 µM in experiment [3] was determined as 99%; in experiment [4], 97%; in experiment [5], 52%; in experiment [6], 65%.

On to `Cc1ccc2c(c1)c1c(n2-c2ccc3ccccc3c2)CCN(C)C1` [Compound 12, 2,8-dimethyl-5-naphthalen-2-yl-2,3,4,5-tetrahydro-1H-pyrido[4,3-b]indole], for which the inhibition at 1 µM stood at 24% in experiment [1] and 84% in experiment [2]. The inhibition at 0.1 µM came to 94% in experiment [3], 93% in experiment [4], 63% in experiment [5] and 3% in experiment [6].

These data come from US9187471B2, “Pyrido [4,3-b] indole and pyrido [3,4-b] indole derivatives and methods of use” (Medivation Technologies, Inc., priority 2010, dated 2015).
